Data taken from patent US8716294B2, “Methods for treating inflammatory conditions” (Melior Discovery, Inc., priority 2006, dated 2014).

Tests used:
Assay type in all cases: in vivo
[1] = system: ICR:CD1 male mice; assay: Delayed-type hypersensitivity (DTH), sheep red blood cell challenge, footpad swelling; conditions: SRBC challenge into footpad, all three doses (10, 30, 100 mg/kg)
Experimental: In this study, tenilsetam was assessed for its ability to affect the delayed-type hypersensitivity (DTH) reactions. DTH reactions are antigen-specific cell-mediated immune responses that can mediate harmful (e.g., allergic dermatitis and autoimmunity) aspects of immune function. The immune reaction induced by the method described below is characterized by swelling at the site of challenge and by an infiltration of monocytes/macrophages and lymphocytes into the epidermis and dermis. This model for skin DTH reactions has been used widely to monitor cell-mediated immune responses in vivo. […] (dexamethasone), a steroid anti-inflammatory, reduces cell-mediated immune responses and was employed to pharmacologically validate the assay.
Materials and Methods. ICR:CD1 male mice (Harlan) 12 to 13 weeks of age were used for this study. Animals were kept on a 12 hr light dark cycle and fed ad libitum. On day 1 of the study, mice were injected IV with 1×10^6 of washed sheep red blood cells in a volume of 200 μL. Mice were administered tenilsetam on day 6. […]
On day 7, mice were re-administered drug as above. Footpad thickness of both the back right and back left foot pads was measured using a digital micrometer. […]
Data are expressed as the average±SEM. Data were averaged and analyzed by ANOVA followed by a post-hoc Tukey's test with a p value of less then 0.05 indicating a statistical difference. […]

[2] = system: ICR:CD1 male mice; assay: Oxazolone contact hypersensitivity (contact dermatitis), ear redness and thickness; conditions: all three doses (10, 30, 100 mg/kg)
Experimental: Contact Hypersensitivity (Contact Dermatitis). Contact hypersensitivity (CHS)^3 is a T cell-mediated cutaneous immune/inflammatory reaction to haptens. Oxazolone can be used to evoke a contact hypersensitivity reaction and produce an animal model of contact dermatitis. Tenilsetam was assessed for its ability to affect oxazolone mediated contact dermatitis reaction.
Materials and Methods. ICR:CD1 male mice (Harlan) 12 to 13 weeks of age were used for this study. Animals were kept on a 12 hr light dark cycle and fed ad libitum.
Oxazolone sensitization. Mice were exposed to 50 μL of 3% oxazolone (in 100% ethanol) via topical application to the skin of the abdomen. Additional exposure was via the 4 paws with a small amount of oxazolone.
Oxazolone challenge. On day 5, both ears of mice were exposed to 1% oxazolone (20 μL per ear; 10 μL/side of ear).
Analysis. On day 6, ears were scored for redness on a 0-3 scoring basis and were measured for thickness using a micrometer. These values were recorded, group values were averaged and statistical differences determined by ANOVA followed by a Mann-Whitney U-test (for visual score) or by Tukey's test (for ear thickness). A p value of less than 0.05 was used to indicate statistical significance.
For this study, there were 5 groups: vehicle, and tenilsetam at 3 dose levels: 10, 30 and 100 mg/kg. In addition, there was a dexamethasone group. […]

[3] = system: TNFα; assay: Lipopolysaccharide general inflammation / septic shock model, TNFα by ELISA; conditions: mice, LPS 0.25 mg/kg ip, blood 90 minutes after LPS; doses of 10 and 30 mg/kg, given 15 minutes prior to LPS; FIG. 3
Source text: Lipopolysaccharide General Inflammation. Bolus injection of lethal or sublethal doses of lipopolysaccharide (LPS; the major component of bacterial cell wall) results in the rapid and transient rise in tumor necrosis factor (TNFα) levels in serum in mammals. This animal model was developed to mirror certain aspects of septic shock in humans. This model is also an effective first-line general inflammation model and may be used to determine the anti-inflammatory potential of test compounds.
Materials and methods. Male ICR:CD1 mice (Harlan Sprague Dawley, Indianapolis, Ind.) 9 to 10 weeks of age were housed three per cage, kept on a standard 12 hr light cycle and fed western (high-fat) diet for 5.5 weeks for these studies. Mice were provided food and water ad libitum.
Lipopolysaccharide (heat killed E. coli 0127:B5; SigmaAldrich) was prepared in water at a concentration of 0.025 mg/ml. LPS was dosed at a volume of 10 ml/kg (ip) to produce a final dose of 0.25 mg/kg or 7.5 μg/mouse. […] Plasma was prepared from blood and TNFα levels determined by ELISA as described below.
Serum TNFα levels were determined using the OptEIA™ mouse TNFα ELISA kit (BD Biosciences) as per directions of the manufacturer. Data were averaged and analyzed by ANOVA followed by a post-hoc Tukey's test with a p value of less then 0.05 indicating a statistical difference. […]

Structure (SMILES): O=C1NCCNC1c1cccs1 (racemic) [Tenilsetam, (+/−)-3-(2-thienyl)-2-piperazinone]
- foot swelling by visual examination [1]: significantly decreased
- foot swelling as measured using a micrometer ([1]; FIG. 1): significantly decreased
- ear swelling after oxazolone challenge, visual scoring ([2]; day 6, 0-3 redness score, FIG. 2A): significantly decreased
- ear swelling after oxazolone challenge, ear thickness measurements ([2]; day 6, micrometer, FIG. 2B): significantly decreased
- TNFα levels [3]: decreased
